According to BindingDB's records for doi:10.1021/jm960495w (Hokkaido University, 1997):

Experiment: Percentage inhibition of N-methyl-D-aspartic acid (NMDA) receptor produced by oocytes

IC50: 51 µM
SMILES: CCC(N)[C@@H]1C[C@@]1(C(=O)N(CC)CC)c1ccccc1 (stereo partly drawn) [(1S,2R)-2-(1-Amino-propyl)-1-phenyl-cyclopropanecarboxylic acid diethylamide]
